In patent US7989422B2, “Antibacterial agents” (Alchemia Limited, priority 2005, dated 2011):

Tests used:
Format in all cases: cell-based
[1] = system: Staphylococcus aureus ATCC 25923; assay: MIC against S. aureus, microbroth dilution in MH broth, without or with 5% horse serum; details: MIC class; S. aureus ATCC 25923
Summary of the method: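 Single-concentration screen at 128 μg/mL in MH broth, then CLSI microbroth twofold dilution in MH broth without or with 5% heat-inactivated horse serum. Inoculum from 0.5 McFarland suspension diluted 1:10; plates incubated 35° C, non-CO2, 18-24 h, then scored for visible growth.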

[2] = system: Staphylococcus aureus (MRSA) ATCC 33591; assay: MIC against MRSA, microbroth dilution; details: MIC class
Protocol: (§1) Testing was conducted to determine the in vitro antimicrobial activity of a series of compounds synthesised by Alchemia Pty Ltd. The antimicrobial activity of each compound was determined at a single concentration (128 μg/mL) in Mueller Hinton (MH) broth against the ATCC type strain of Staphylococcus aureus. […] Compounds showing activity at concentrations up to 32-64 μg/mL in the presence/absence of serum were then tested for MIC activity against a standard set of 5 microorganisms comprising of ATCC type strains of MRSA, Enterococcus faecalis, Enterococcus faecium, VRE and Escherichia coli. CLSI (formerly NCCLS) microbroth dilution technique was used.
(§2) Each compound is initially dissolved in 100 μL of DMSO. Each solution is then diluted further in 0.9 mL of sterile MH broth to give a total volume of 1 mL (1000 μg/mL) This stock solution is then further diluted in MH broth to give a test solution with final concentration of 128 μg/mL using the following formula: 0.5 ml stock in 3.4 ml MH broth
(§3) Each test organism was subcultured from the −70° C. deep freezer onto horse blood agar. The plates were streaked to obtain isolated colonies and incubated at 35° C. in non-CO2 incubator for 24 hours. A second subculture was carried out onto horse blood agar. For each test organism, 1-2 colonies were selected from an 18-24 hour culture and inoculated into 2 ml sterile MH broth. The turbidity was adjusted to 0.5 McFarland standard.
(§4) A 1:10 dilution in MH broth (200 μL in 2 ml MH) of the 0.5 McFarland control was prepared. 5 μL of this diluted solution was used to inoculate the trays.
(§5) The trays were prepared in a similar way as mentioned above and incubated at 35° C. in a non-CO2 incubator for 18-24 hours. The plates were examined for growth after the incubation time.
(§6) After 18-24 hour incubation 5 μL from each well was then inoculated onto horse blood agar and incubated for 18-24 hours at 35° C. in a non-CO2 incubator.
(§7) If the test organism is sensitive to the compound in the broth the growth will be inhibited. Similarly, if the organism grows on the antibiotic containing medium then it is resistant to this particular antibiotic.

[3] = system: Enterococcus faecium ATCC 35667; assay: MIC against E. faecium, microbroth dilution; details: MIC class
Protocol: as §1, §2, §3, §4, §5, §6, §7

E. Faecium 51299 VanB = assay: MIC against vancomycin-resistant enterococcus 51299 (VanB), microbroth dilution; details: MIC class; ATCC 51299 VanB
Protocol: as §1, §2, §3, §4, §5, §6, §7

[4] = system: Enterococcus faecalis ATCC 29212; assay: MIC against E. faecalis, microbroth dilution; details: MIC class
Protocol: as §1, §2, §3, §4, §5, §6, §7

Compound | S. Aureus 25923 activity [1] | S. Aureus 33591 MRSA activity [2] | E. Faecium 35667 activity [3] | E. Faecium 51299 VanB activity (E. Faecium 51299 VanB) | E. Fecalis 29212 activity [4]
CCCCCCCCCCCCC(N)C(=O)NC1C(CO)OCC(Nc2ccc(C(F)(F)F)cc2N)C1O (stereo not shown) [Compound 207] | + (“+”: MIC (μg/mL): 64 ≧ MIC > 16) | + (“+”: MIC (μg/mL): 64 ≧ MIC > 16) | + (“+”: MIC (μg/mL): 64 ≧ MIC > 16) | + (“+”: MIC (μg/mL): 64 ≧ MIC > 16) | + (“+”: MIC (μg/mL): 64 ≧ MIC > 16)
NC(C(=O)Nc1nc2cc(C(F)(F)F)ccc2n1C1C(CO)OCC(NC(=O)Nc2ccc(Cl)c(C(F)(F)F)c2)C1O)c1ccc(-c2ccccc2)cc1 (stereo not shown) [Compound 236] | − (“−”: MIC (μg/mL): MIC > 64) | ++ (“++”: MIC (μg/mL): MIC ≦ 16) | ++ (“++”: MIC (μg/mL): MIC ≦ 16) | + (“+”: MIC (μg/mL): 64 ≧ MIC > 16) | ++ (“++”: MIC (μg/mL): MIC ≦ 16)
NC(Cc1ccc(-c2ccccc2)cc1)C(=O)Nc1nc2cc(C(F)(F)F)ccc2n1C1C(CO)OCC(NC(=O)Nc2ccc(Cl)c(C(F)(F)F)c2)C1O (stereo not shown) [Compound 237] | − (“−”: MIC (μg/mL): MIC > 64) | ++ (“++”: MIC (μg/mL): MIC ≦ 16) | − (“−”: MIC (μg/mL): MIC > 64) | − (“−”: MIC (μg/mL): MIC > 64) | ++ (“++”: MIC (μg/mL): MIC ≦ 16)
NC(CC(=O)Nc1nc2cc(C(F)(F)F)ccc2n1C1C(CO)OCC(NC(=O)Nc2ccc(Cl)c(C(F)(F)F)c2)C1O)c1ccc(-c2ccccc2)cc1 (stereo not shown) [Compound 238] | − (“−”: MIC (μg/mL): MIC > 64) | ++ (“++”: MIC (μg/mL): MIC ≦ 16) | − (“−”: MIC (μg/mL): MIC > 64) | − (“−”: MIC (μg/mL): MIC > 64) | ++ (“++”: MIC (μg/mL): MIC ≦ 16)
NC(C(=O)Nc1nc2cc(C(F)(F)F)ccc2n1C1C(CO)OCC(NS(=O)(=O)c2ccc(C(F)(F)F)cc2)C1O)c1ccc(-c2ccccc2)cc1 (stereo not shown) [Compound 240] | ++ (“++”: MIC (μg/mL): MIC ≦ 16) | ++ (“++”: MIC (μg/mL): MIC ≦ 16) | − (“−”: MIC (μg/mL): MIC > 64) | − (“−”: MIC (μg/mL): MIC > 64) | ++ (“++”: MIC (μg/mL): MIC ≦ 16)
NC(Cc1ccc(-c2ccccc2)cc1)C(=O)Nc1nc2cc(C(F)(F)F)ccc2n1C1C(CO)OCC(NS(=O)(=O)c2ccc(C(F)(F)F)cc2)C1O (stereo not shown) [Compound 241] | ++ (“++”: MIC (μg/mL): MIC ≦ 16) | ++ (“++”: MIC (μg/mL): MIC ≦ 16) | ++ (“++”: MIC (μg/mL): MIC ≦ 16) | + (“+”: MIC (μg/mL): 64 ≧ MIC > 16) | ++ (“++”: MIC (μg/mL): MIC ≦ 16)
NC(CC(=O)Nc1nc2cc(C(F)(F)F)ccc2n1C1C(CO)OCC(NS(=O)(=O)c2ccc(C(F)(F)F)cc2)C1O)c1ccc(-c2ccccc2)cc1 (stereo not shown) [Compound 242] | ++ (“++”: MIC (μg/mL): MIC ≦ 16) | ++ (“++”: MIC (μg/mL): MIC ≦ 16) | ++ (“++”: MIC (μg/mL): MIC ≦ 16) | − (“−”: MIC (μg/mL): MIC > 64) | ++ (“++”: MIC (μg/mL): MIC ≦ 16)
O=C(Nc1ccc(Cl)c(C(F)(F)F)c1)NC1COC(CO)C(n2c(NCc3ccccc3)nc3cc(C(F)(F)F)ccc32)C1O (stereo not shown) [Compound 246] | ++ (“++”: MIC (μg/mL): MIC ≦ 16) | ++ (“++”: MIC (μg/mL): MIC ≦ 16) | + (“+”: MIC (μg/mL): 64 ≧ MIC > 16) | + (“+”: MIC (μg/mL): 64 ≧ MIC > 16) | ++ (“++”: MIC (μg/mL): MIC ≦ 16)
O=C(Nc1ccc(Cl)c(C(F)(F)F)c1)NC1COC(CO)C(n2c(NCc3ccc(Cl)cc3)nc3cc(C(F)(F)F)ccc32)C1O (stereo not shown) [Compound 247] | ++ (“++”: MIC (μg/mL): MIC ≦ 16) | ++ (“++”: MIC (μg/mL): MIC ≦ 16) | − (“−”: MIC (μg/mL): MIC > 64) | ++ (“++”: MIC (μg/mL): MIC ≦ 16) | ++ (“++”: MIC (μg/mL): MIC ≦ 16)
CC(C)(C)c1ccc(CNc2nc3cc(C(F)(F)F)ccc3n2C2C(CO)OCC(NC(=O)Nc3ccc(Cl)c(C(F)(F)F)c3)C2O)cc1 (stereo not shown) [Compound 248] | ++ (“++”: MIC (μg/mL): MIC ≦ 16) | ++ (“++”: MIC (μg/mL): MIC ≦ 16) | ++ (“++”: MIC (μg/mL): MIC ≦ 16) | ++ (“++”: MIC (μg/mL): MIC ≦ 16) | ++ (“++”: MIC (μg/mL): MIC ≦ 16)
O=C(Nc1ccc(Cl)c(C(F)(F)F)c1)NC1COC(CO)C(n2c(NCc3cccc(Oc4ccccc4)c3)nc3cc(C(F)(F)F)ccc32)C1O (stereo not shown) [Compound 249] | ++ (“++”: MIC (μg/mL): MIC ≦ 16) | ++ (“++”: MIC (μg/mL): MIC ≦ 16) | ++ (“++”: MIC (μg/mL): MIC ≦ 16) | ++ (“++”: MIC (μg/mL): MIC ≦ 16) | ++ (“++”: MIC (μg/mL): MIC ≦ 16)
O=C(Nc1ccc(Cl)c(C(F)(F)F)c1)NC1COC(CO)C(n2c(NCc3ccc4ccccc4c3)nc3cc(C(F)(F)F)ccc32)C1O (stereo not shown) [Compound 251] | ++ (“++”: MIC (μg/mL): MIC ≦ 16) | ++ (“++”: MIC (μg/mL): MIC ≦ 16) | ++ (“++”: MIC (μg/mL): MIC ≦ 16) | ++ (“++”: MIC (μg/mL): MIC ≦ 16) | ++ (“++”: MIC (μg/mL): MIC ≦ 16)
O=C(Nc1ccc(Cl)c(C(F)(F)F)c1)NC1COC(CO)C(n2c(Nc3ccc(Cl)cc3)nc3cc(C(F)(F)F)cc(Cl)c32)C1O (stereo not shown) [Compound 252] | + (“+”: MIC (μg/mL): 64 ≧ MIC > 16) | − (“−”: MIC (μg/mL): MIC > 64) | − (“−”: MIC (μg/mL): MIC > 64) | − (“−”: MIC (μg/mL): MIC > 64) | + (“+”: MIC (μg/mL): 64 ≧ MIC > 16)
O=C(Nc1ccc(Cl)c(C(F)(F)F)c1)NC1COC(CO)C(n2c(Nc3ccc(C(F)(F)F)cc3)nc3cc(C(F)(F)F)cc(Cl)c32)C1O (stereo not shown) [Compound 253] | − (“−”: MIC (μg/mL): MIC > 64) | − (“−”: MIC (μg/mL): MIC > 64) | − (“−”: MIC (μg/mL): MIC > 64) | − (“−”: MIC (μg/mL): MIC > 64) | + (“+”: MIC (μg/mL): 64 ≧ MIC > 16)
O=C(Nc1ccc(Cl)c(C(F)(F)F)c1)NC1COC(CO)C(n2c(Nc3ccc(-c4ccccc4)cc3)nc3cc(C(F)(F)F)cc(Cl)c32)C1O (stereo not shown) [Compound 254] | ++ (“++”: MIC (μg/mL): MIC ≦ 16) | ++ (“++”: MIC (μg/mL): MIC ≦ 16) | − (“−”: MIC (μg/mL): MIC > 64) | − (“−”: MIC (μg/mL): MIC > 64) | − (“−”: MIC (μg/mL): MIC > 64)
O=C(Nc1ccc(Cl)c(C(F)(F)F)c1)NC1COC(CO)C(n2c(NCc3ccccc3)nc3cc(C(F)(F)F)cc(Cl)c32)C1O (stereo not shown) [Compound 255] | ++ (“++”: MIC (μg/mL): MIC ≦ 16) | ++ (“++”: MIC (μg/mL): MIC ≦ 16) | − (“−”: MIC (μg/mL): MIC > 64) | + (“+”: MIC (μg/mL): 64 ≧ MIC > 16) | ++ (“++”: MIC (μg/mL): MIC ≦ 16)
O=C(Nc1ccc(Cl)c(C(F)(F)F)c1)NC1COC(CO)C(n2c(NCc3ccc(Cl)cc3)nc3cc(C(F)(F)F)cc(Cl)c32)C1O (stereo not shown) [Compound 256] | − (“−”: MIC (μg/mL): MIC > 64) | − (“−”: MIC (μg/mL): MIC > 64) | − (“−”: MIC (μg/mL): MIC > 64) | ++ (“++”: MIC (μg/mL): MIC ≦ 16) | ++ (“++”: MIC (μg/mL): MIC ≦ 16)
